Assay results reported in patent publication US7465824B2, “Process for the production of high purity aromatic carboxylic acids using a benzoic acid and water solvent for oxidation and purification” (BP Corporation North America Inc., priority 2007, dated 2008).

Assay: Solubility of TA in a solvent containing 50% benzoic acid and 50% water at various temperatures
Type: physicochemical
Details: solvent 50% benzoic acid and 50% water
Procedure: The solubility of TA in a solvent containing 50% benzoic acid and 50% water was determined at various temperatures and is shown below in Table 1.

solubility of TA given in Example 1 (at 455 °F): 10.9%
TA Solubility (Temp 397 °F): 5.04 g TA/100 g Solution
TA Solubility (Temp 436 °F): 8.58 g TA/100 g Solution
TA Solubility (Temp 446 °F): 9.59 g TA/100 g Solution
TA Solubility (Temp 451 °F): 9.77 g TA/100 g Solution
TA Solubility (Temp 455 °F): 10.91 g TA/100 g Solution
TA Solubility (Temp 477 °F): 13.49 g TA/100 g Solution
TA Solubility (Temp 505 °F): 18.71 g TA/100 g Solution
Compound: O=C(O)c1ccc(C(=O)O)cc1 [TA, terephthalic acid]
